Measurements taken from ChEMBL document CHEMBL1157225, “Highly N-methylated linear peptides produced by an atypical sponge-derived Acremonium sp” (2006).
Converted amounts (≈) assume the structure as drawn. Where a SMILES comes first, the peptide text is derived from it. [ ]: non-standard residue; d: D form. The star is where a group is joined. X1 = CC(C)C[C@@H](C[N+]1=C2CCCN2CCC1)N*; Pip = O=C(O)[C@@H]1CCCCN1; Iva = CC[C@](C)(N)C(=O)O; Aib = CC(C)(N)C(=O)O; βAla = NCCC(=O)O

What was measured:
[1] = system: L1210; experiment: Cytotoxicity against mouse L1210 cells relative to efrapeptin G; format: functional
[2] = system: Staphylococcus epidermidis; experiment: Antimicrobial activity against Staphylococcus epidermidis; format: functional
[3] = Staphylococcus epidermidis, read-out: MIC

Row | MIC [2] [µg/mL] | Structure (SMILES) | Activity [1] | MIC [2, 3] [µg/mL]
1 |  | CC[C@H](C)[C@H](NC(=O)[C@H](C(C)C)N(C)C(=O)[C@H](CC(C)C)N(C)C(=O)[C@@H](NC(=O)[C@@H](CCC(N)=O)NC(C)=O)C(C)C)C(=O)N(C)[C@H](C(=O)N(C)[C@H](C(=O)N(C)[C@H](C(=O)O)[C@@H](C)CC)[C@@H](C)CC)[C@@H](C)CC | 1 | > 400
2 |  | CN[C@H](CC(C)C)C(=O)N[C@H]1C(=O)N[C@@H](CC(N)=O)C(=O)N[C@H]2C(=O)N[C@H]3C(=O)N[C@H](C(=O)N[C@H](C(=O)O)c4cc(O)cc(O)c4-c4cc3ccc4O)[C@H](O)c3ccc(c(Cl)c3)Oc3cc2cc(c3O[C@@H]2O[C@H](CO)[C@@H](O)[C@H](O)[C@H]2O[C@H]2C[C@](C)(N)[C@H](O)[C@H](C)O2)Oc2ccc(cc2Cl)[C@H]1O [VANCOMYCIN] |  | 0.63 (≈ 0.435 µM)
3 | 50 (≈ 48.2 µM) | CC[C@H](C)[C@H](NC(=O)[C@H](CC(C)C)N(C)C(=O)[C@@H](NC(=O)[C@@H](CCC(N)=O)NC(C)=O)[C@@H](C)CC)C(=O)N(C)[C@H](C(=O)N(C)[C@H](C(=O)N(C)[C@H](C(=O)N(C)[C@H](C(=O)O)[C@@H](C)CC)[C@@H](C)CC)[C@@H](C)CC)C(C)C |  | 25 (≈ 24.1 µM)
4 |  | CC[C@](C)(NC(=O)[C@H](CC(C)C)NC(=O)[C@H](C)NC(=O)C(C)(C)NC(=O)[C@@H]1CCCCN1C(=O)C(C)(C)NC(=O)C(C)(C)NC(=O)CNC(=O)CCNC(=O)[C@H](CC(C)C)NC(=O)C(C)(C)NC(=O)[C@](C)(CC)NC(=O)[C@@H]1CCCCN1C(=O)C(C)(C)NC(=O)[C@@H]1CCCCN1C(C)=O)C(=O)N[C@@H](CC(C)C)C[N+]1=C2CCCN2CCC1 [EFRAPEPTIN G] (Ac-[Pip][Aib][Pip][Iva][Aib]L[βAla]G[Aib][Aib][Pip][Aib]AL[Iva]-X1) | 3300 | 80
